Article PMC11775380, “Discovery of Novel Nav1.7-Selective Inhibitors with the 1H-Indole-3-Propionamide Scaffold for Effective Pain Relief” (Research, 2025)

Target: T1, human Nav1.7 (hNav1.7) (Homo sapiens, UniProt Q15858)
T1 construct: expressed in transfected cells; host or cells: HEK293T
Assay: Whole-cell patch-clamp inhibition of Nav1.7 currents in transfected HEK293T cells
Assay type: cell-based
Conditions: HEK-293T; 10 μM compound; inhibition rate of Nav1.7; read-out: Inhibitory activity (10 μM)
Experimental: Human embryonic kidney (HEK) 293T (ATCC CRL-3216) and ND7/23 cells (National Collection of Authenticated Cell Cultures SCSP-5026) were cultured under standard conditions (5% CO2, 37 °C) in Dulbecco’s modified Eagle’s medium (DMEM) containing 10% fetal bovine serum and 1% penicillin-streptomycin solution(all from Gibco, Thermo Fisher Scientific, Waltham, MA, USA). When the cells reached 70% to 90% confluence, human Nav1.2 (hNav1.2), human Nav1.3 (hNav1.3), human Nav1.4 (hNav1.4), human Nav1.5 (hNav1.5), and mouse Nav1.6 (mNav1.6) channel plasmids were cotransfected with enhanced green fluorescent protein (eGFP) into HEK293T cells. Additionally, plasmids expressing β1 and β2 subunits tagged with eGFP were cotransfected with the human Nav1.7 (hNav1.7) channel into HEK293T cells. Human Nav1.8 (hNav1.8) was transiently transfected into ND7/23 cells, along with eGFP, using Lipofectamine 2000 (Invitrogen), adhering strictly to the manufacturer’s protocol. For manual patch-clamp experiments, the cells were plated onto glass coverslips and used within 20 to 48 h of transfection.
Whole-cell patch-clamp recordings were conducted at 25 ± 2 °C, utilizing an EPC 10USB patch-clamp amplifier (HEKA Elektronik, Lambrecht, Germany). Pipettes, with access resistance between 2.0 and 3.0 MΩ, were pulled from borosilicate glass capillary tubes using a 2-step vertical microelectrode puller (PC-10, Narishige Group, Tokyo, Japan). Voltage-clamp recordings were obtained with PatchMaster software v2 × 73 (HEKA Elektronik) 5 min after establishing whole-cell configuration, sampled at 20 kHz, and filtered at 5 kHz. To minimize voltage errors, 80% series resistance compensation was applied. Pipettes were filled with 140 mM CsF, 10 mM NaCl, 1 mM EGTA, and 10 mM HEPES (pH=7.4, adjusted with CsOH). The external solution contained 140 mM NaCl, 2 mM CaCl2, 1 mM MgCl2, 5 mM KCl, 10 mM HEPES, and 10 mM glucose (pH=7.4, adjusted with NaOH). IC50 values were determined in HEK293T or ND7/23 cell lines by voltage clamping at −80 mV, followed by stepping to the V1/2 of inactivation for 8 s to facilitate compound binding.

T1 sequence (Q15858 whole entry): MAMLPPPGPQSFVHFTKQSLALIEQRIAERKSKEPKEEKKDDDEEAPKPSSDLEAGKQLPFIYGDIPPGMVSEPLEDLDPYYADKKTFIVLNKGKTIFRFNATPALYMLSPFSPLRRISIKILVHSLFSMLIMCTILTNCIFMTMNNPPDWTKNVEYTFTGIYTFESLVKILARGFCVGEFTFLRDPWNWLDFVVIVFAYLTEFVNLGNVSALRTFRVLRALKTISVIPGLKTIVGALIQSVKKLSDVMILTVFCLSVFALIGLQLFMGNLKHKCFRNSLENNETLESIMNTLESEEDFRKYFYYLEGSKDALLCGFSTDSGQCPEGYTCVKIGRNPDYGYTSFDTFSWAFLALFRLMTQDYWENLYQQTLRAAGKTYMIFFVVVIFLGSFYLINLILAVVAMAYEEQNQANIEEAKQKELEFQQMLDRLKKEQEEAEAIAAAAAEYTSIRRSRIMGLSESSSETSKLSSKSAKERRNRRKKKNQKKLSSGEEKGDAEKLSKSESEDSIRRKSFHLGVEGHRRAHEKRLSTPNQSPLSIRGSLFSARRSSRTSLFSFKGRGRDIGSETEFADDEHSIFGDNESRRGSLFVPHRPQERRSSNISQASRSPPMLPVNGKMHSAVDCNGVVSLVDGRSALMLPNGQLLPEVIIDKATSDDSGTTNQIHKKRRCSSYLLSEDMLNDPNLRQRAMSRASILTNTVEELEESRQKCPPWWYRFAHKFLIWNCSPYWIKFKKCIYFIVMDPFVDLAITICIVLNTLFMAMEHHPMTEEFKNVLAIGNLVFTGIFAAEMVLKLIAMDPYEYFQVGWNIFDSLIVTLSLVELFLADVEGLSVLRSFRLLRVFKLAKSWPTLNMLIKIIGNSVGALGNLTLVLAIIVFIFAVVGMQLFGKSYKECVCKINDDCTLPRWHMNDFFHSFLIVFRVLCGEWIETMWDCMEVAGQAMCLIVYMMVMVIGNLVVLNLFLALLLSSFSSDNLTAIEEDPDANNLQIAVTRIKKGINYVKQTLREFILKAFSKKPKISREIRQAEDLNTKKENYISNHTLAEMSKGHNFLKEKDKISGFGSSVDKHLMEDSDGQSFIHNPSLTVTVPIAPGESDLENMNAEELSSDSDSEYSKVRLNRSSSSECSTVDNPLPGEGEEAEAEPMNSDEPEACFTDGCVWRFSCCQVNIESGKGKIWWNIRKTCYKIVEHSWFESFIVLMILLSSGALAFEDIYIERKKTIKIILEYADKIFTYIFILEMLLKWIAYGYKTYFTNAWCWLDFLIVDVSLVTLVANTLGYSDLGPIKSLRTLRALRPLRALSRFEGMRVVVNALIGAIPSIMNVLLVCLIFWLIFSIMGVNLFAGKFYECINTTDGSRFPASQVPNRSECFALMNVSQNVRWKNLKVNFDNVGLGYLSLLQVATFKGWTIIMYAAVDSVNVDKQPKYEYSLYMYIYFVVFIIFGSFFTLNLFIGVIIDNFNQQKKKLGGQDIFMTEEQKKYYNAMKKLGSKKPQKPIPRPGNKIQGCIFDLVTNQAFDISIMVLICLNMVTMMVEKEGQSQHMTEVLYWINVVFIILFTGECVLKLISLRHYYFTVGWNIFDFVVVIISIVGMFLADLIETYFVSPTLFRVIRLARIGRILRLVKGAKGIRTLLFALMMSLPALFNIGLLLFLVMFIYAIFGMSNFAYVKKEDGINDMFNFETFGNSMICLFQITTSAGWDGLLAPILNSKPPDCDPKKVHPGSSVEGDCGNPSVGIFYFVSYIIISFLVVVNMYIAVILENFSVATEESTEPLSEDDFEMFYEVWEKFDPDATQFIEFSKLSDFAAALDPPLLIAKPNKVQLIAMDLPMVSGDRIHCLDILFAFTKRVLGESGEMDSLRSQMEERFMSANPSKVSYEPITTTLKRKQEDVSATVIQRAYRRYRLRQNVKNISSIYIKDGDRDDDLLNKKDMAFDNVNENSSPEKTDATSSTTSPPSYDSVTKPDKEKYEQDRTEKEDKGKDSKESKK
T1 sequence (Q07699 19-218 partner): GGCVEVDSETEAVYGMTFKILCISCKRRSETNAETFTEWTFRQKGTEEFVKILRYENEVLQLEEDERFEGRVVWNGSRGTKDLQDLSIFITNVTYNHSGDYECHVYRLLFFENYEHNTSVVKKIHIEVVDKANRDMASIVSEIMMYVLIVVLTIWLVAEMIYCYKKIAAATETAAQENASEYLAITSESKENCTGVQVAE
T1 sequence (O60939 30-215 partner): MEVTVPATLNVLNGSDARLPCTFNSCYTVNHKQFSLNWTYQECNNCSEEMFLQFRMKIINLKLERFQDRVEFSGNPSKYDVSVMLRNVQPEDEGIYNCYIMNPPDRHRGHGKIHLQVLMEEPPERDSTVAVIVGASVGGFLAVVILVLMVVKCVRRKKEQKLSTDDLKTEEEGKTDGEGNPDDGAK

Row | SMILES | inhibition at 10 µM
1 | Cc1cccc(C(CC(=O)NCCC(C)C)c2cn(Cc3ccc(F)cc3)c3ccccc23)c1 (stereo not drawn) [B6, CC1=CC(=CC=C1)C(CC(=O)NCCC(C)C)C2=CN(C3=CC=CC=C32)CC4=CC=C(C=C4)F] | 7.88%
2 | O=S(=O)(c1ccc(F)cc1)N(c1ccc2c(c1)OCO2)C1CCN(Cc2cccnc2)CC1 [B31, C1CN(CCC1N(C2=CC3=C(C=C2)OCO3)S(=O)(=O)C4=CC=C(C=C4)F)CC5=CN=CC=C5] | 16%
3 | CCOc1ccc(C2N(c3ccc(Cl)c(Cl)c3)N=C(C(C)=O)N2c2ccc(N3CCN(C(C)=O)CC3)cc2)cc1 (stereo not drawn) [A13, CCOC1=CC=C(C=C1)C2N(C(=NN2C3=CC(=C(C=C3)Cl)Cl)C(=O)C)C4=CC=C(C=C4)N5CCN(CC5)C(=O)C] | 15.8%
4 | O=C(CC(c1ccc(C(F)(F)F)cc1)c1cn(Cc2ccccc2)c2ccccc12)NCCc1ccccn1 (stereo not drawn) [B32, C1=CC=C(C=C1)CN2C=C(C3=CC=CC=C32)C(CC(=O)NCCC4=CC=CC=N4)C5=CC=C(C=C5)C(F)(F)F] | 16.6%
5 | CC(C)CNC(=O)CC(c1ccc(C(F)(F)F)cc1)c1cn(Cc2ccccc2)c2ccccc12 (stereo not drawn) [B34, CC(C)CNC(=O)CC(C1=CC=C(C=C1)C(F)(F)F)C2=CN(C3=CC=CC=C32)CC4=CC=CC=C4] | 13.4%
6 | COc1ccc(Cn2cc(C(CC(=O)NCCc3ccccn3)c3ccc(OC)cc3)c3ccccc32)cc1 (stereo not drawn) [B29, COC1=CC=C(C=C1)CN2C=C(C3=CC=CC=C32)C(CC(=O)NCCC4=CC=CC=N4)C5=CC=C(C=C5)OC] | 9.42%
7 | COc1ccc(Cn2cc(C(CC(=O)NCCc3ccccn3)c3cc(C)ccc3F)c3ccccc32)cc1 (stereo not drawn) [B12, CC1=CC(=C(C=C1)F)C(CC(=O)NCCC2=CC=CC=N2)C3=CN(C4=CC=CC=C43)CC5=CC=C(C=C5)OC] | 4.98%
8 | O=C(CC(c1ccc(C(F)(F)F)cc1)c1cn(Cc2ccc(F)cc2)c2ccccc12)NCCN1CCOCC1 (stereo not drawn) [B24, C1COCCN1CCNC(=O)CC(C2=CC=C(C=C2)C(F)(F)F)C3=CN(C4=CC=CC=C43)CC5=CC=C(C=C5)F] | 16%
9 | Cn1cc(C(CC(=O)NCCc2ccccn2)c2ccc(C(F)(F)F)cc2)c2ccccc21 (stereo not drawn) [B38, CN1C=C(C2=CC=CC=C21)C(CC(=O)NCCC3=CC=CC=N3)C4=CC=C(C=C4)C(F)(F)F] | 13.9%
10 | O=C(CC(c1cccc(OCc2ccccc2)c1)c1cn(Cc2ccc(F)cc2)c2ccccc12)NCCc1ccccc1 (stereo not drawn) [A3, C1=CC=C(C=C1)CCNC(=O)CC(C2=CC(=CC=C2)OCC3=CC=CC=C3)C4=CN(C5=CC=CC=C54)CC6=CC=C(C=C6)F] | 9.09%
11 | CCOc1ccc(C(CC(=O)NCCc2ccccn2)c2cn(Cc3ccc(OC)cc3)c3ccccc23)cc1 (stereo not drawn) [B15, CCOC1=CC=C(C=C1)C(CC(=O)NCCC2=CC=CC=N2)C3=CN(C4=CC=CC=C43)CC5=CC=C(C=C5)OC] | 20.5%
12 | O=C(CC(c1ccc(F)cc1)c1cn(Cc2ccccc2)c2ccccc12)NCCc1ccc(Cl)cc1Cl (stereo not drawn) [B1, C1=CC=C(C=C1)CN2C=C(C3=CC=CC=C32)C(CC(=O)NCCC4=C(C=C(C=C4)Cl)Cl)C5=CC=C(C=C5)F] | 6.13%
13 | O=C(CC(c1cccc(Cl)c1)c1cn(Cc2ccc(F)cc2)c2ccccc12)NCC1COc2ccccc2O1 (stereo not drawn) [A7, FC(C=C1)=CC=C1CN2C=C(C(CC(NCC3COC(C=CC=C4)=C4O3)=O)C5=CC(Cl)=CC=C5)C6=CC=CC=C62] | 58%
14 | Cc1cccc(C(CC(=O)NCCc2ccccc2)c2cn(Cc3ccc(F)cc3)c3ccccc23)c1 (stereo not drawn) [B5, CC1=CC(=CC=C1)C(CC(=O)NCCC2=CC=CC=C2)C3=CN(C4=CC=CC=C43)CC5=CC=C(C=C5)F] | 2.93%
15 | COc1cc(OC)cc(C(CC(=O)NCCc2ccccn2)c2cn(Cc3ccc(F)cc3)c3ccccc23)c1 (stereo not drawn) [B26, COC1=CC(=CC(=C1)C(CC(=O)NCCC2=CC=CC=N2)C3=CN(C4=CC=CC=C43)CC5=CC=C(C=C5)F)OC] | 26.1%
16 | Cc1ccc(Cn2cc(C(CC(=O)NCCc3ccccn3)c3ccc(F)cc3)c3ccccc32)cc1 (stereo not drawn) [B18, CC1=CC=C(C=C1)CN2C=C(C3=CC=CC=C32)C(CC(=O)NCCC4=CC=CC=N4)C5=CC=C(C=C5)F] | 13.7%
17 | COc1ccc(N2CC(C(=O)NC3CCCc4c3[nH]c3ccccc43)CC2=O)c(OC)c1 (stereo not drawn) [A8, COC1=CC(=C(C=C1)N2CC(CC2=O)C(=O)NC3CCCC4=C3NC5=CC=CC=C45)OC] | 12.1%
18 | O=C(CSc1nc(=O)n(Cc2cccnc2)c2c1CCC2)NCc1ccc(F)cc1 [A1, C1CC2=C(C1)N(C(=O)N=C2SCC(=O)NCC3=CC=C(C=C3)F)CC4=CN=CC=C4] | -0.67%
